Reference: patent US20070190554A1, “Novel binding site for retigabine on KCNQ5” (priority 2006, published 2007)
“Also recorded” adds a separate entry of the source. Like-named read-outs stand apart in the source and are kept apart here.

Legend:
[1] = biological target: KCNQ5 containing an S5-S6 transmembrane domain from KCNQ1 (Homo sapiens, UniProt Q9NR82, A261I/A269T/A329S/A332S/F282Y/G330C/G335A/I307V/INS291VNESG/K264Q/K293V/L283F/L309V/L320Q/L323V/L326T/L327I/L333V/L334F/N292R/R325K/S263R/S296G/S328A/T297S/T306V/T318V/V276G/V287A/W270L/Y260F); details: 50 μM retigabine
Description: Differences were considered to be significant at P<0.05.
All mutations were confirmed by DNA sequencing.

KCNQ5(W270L) = biological target: T1, KCNQ5(W270L) (Homo sapiens, UniProt Q9NR82, W270L); assay: Two-electrode voltage clamp in Xenopus oocytes, S5 point mutant KCNQ5(W270L); assay type: cell-based; details: 50 μM retigabine; FIG. 3 bottom panel
T1 construct: expressed in transfected cells; host or cells: Xenopus oocytes injected with cRNA
Method: (§1) FIG. 3 Mutagenesis analysis of S5 domain in KCNQ5. Sequence alignment of all five members in KCNQ family is shown on the top. The most diverse residues between KCNQ1 and the other members are highlighted in bold case and the corresponding residues in KCNQ5 were individually mutated to their counterparts in KCNQ1. Then each mutant with single mutation was tested with 50 μM retigabine and the fold increase (IΔ/I0) in current amplitude was plotted in the graph on bottom. In all mutants, n equals 6.
(§2) The gene sequences were confirmed by DNA sequencing. […] Electrophysiological recording was performed 3-7 days after injection.
(§3) The S5 domains of all five KCNQ members were sequence aligned and searched for unique amino acid residues that might account for the lack of KCNQ1's response to retigabine. As shown in FIG. 3 upper panel, there are ten unmatched residues between KCNQ1 and KCNQ5. Seven of them highlighted in FIG. 3 may be unique for KCNQ1. Therefore, mutations in KCNQ5 were generated for each of 7 residues modified individually to the corresponding in KCNQ1. One mutant, KCNQ5(F282Y) lost its functionality when expressed in oocytes. […] Retigabine's effect on each of these mutants was then tested.

KCNQ5(A269T) = biological target: T2, KCNQ5(A269T) (Homo sapiens, UniProt Q9NR82, A269T); assay: Two-electrode voltage clamp in Xenopus oocytes, S5 point mutant KCNQ5(A269T); assay type: cell-based; details: 50 μM retigabine; FIG. 3 bottom panel
T2 construct: mutations in KCNQ5 were generated for each of 7 residues modified individually to the corresponding in KCNQ1; expressed in transfected cells; host or cells: Xenopus oocytes injected with cRNA
Method: as §1, §2, §3

[2] = biological target: KCNQ5 containing an S5 transmembrane domain from KCNQ1 (Homo sapiens, UniProt Q9NR82, A261I/A269T/F282Y/K264Q/L283F/S263R/V276G/V287A/W270L/Y260F); details: 50 μM retigabine
Method: Expression of KCNQ5 and KCNQ1 channels into Xenopus oocytes—Human KCNQ5 and KCNQ1 genes were cloned into a pKSM vector that has been engineered specifically for oocyte expression. […] Xenopus oocytes were injected with 46 nl solution containing approximately 9.2 ng cRNA using a Drumond Nanojet oocyte injector (Drummond Scientific Co., Broomall, Pa.). Electrophysiological recording was performed 3-7 days after injection.
Electrophysiology—All experiments were performed at room temperature (22-23° C.) using conventional oocyte two-electrode voltage clamp recording (TEVC). The recording electrodes were pulled from 1.5 mm glass pipette using a Sutter P-97 micropipette puller (Sutter Instrument, Novato, Calif.) and filled with 3M KCl. The pipette tip was carefully broken off to acquire the electrode resistance at 0.5-1 Mohm. A Dagan CA-1 amplifier (Dagan Corporation, Minneapolis Minn.) was used and the holding potential was clamped at −100 mV. To test voltage dependence of channel activation, a series of depolarized voltage pulses was applied. To observe the time course of retigabine's effect, a single (3 sec) voltage pulse at 40 mV was applied repeatedly at 15 sec intervals. A HEKA computer interface (HEKA Elektronik, Lambrecht, Germany) with Pulse 8.5 software was used to control the amplifier and digitized the data for analysis. Solutions and Chemicals—ND96 solution containing (in mM) NaCl, 96, KCl, 2, CaCl2, 1.8, MgCl2, 1, HEPES, 10 was used for oocyte incubation and recording. Retigabine was made as a stock solution in DMSO at 50 mM and diluted into desired concentrations just before application in experiments. […] In all experiments, DMSO was used less than 0.4%.
Compounds were applied to the cells via a fast bath perfusion system (ALA Scientific Instruments, Westbury, N.Y.), and a bath solution change was completed within 10 seconds.
Data analysis—Current amplitude was measured online using HEKA Pulsefit 8.5 software. To acquire channel conductance from macroscopic current, the K^+ reversal potential was approximated to be −80 mV in ND96 solution and the following equation was applied: G=I/(V+80), where G is the whole oocyte conductance, I is the whole oocyte current, and V is the voltage used to induce the current. Data were expressed as mean±SE, and the paired student t test was performed. Differences were considered to be significant at P<0.05.
To further dissect the action site of retigabine, the S5-S6 transmembrane domain from KCNQ1 was divided into two parts, the S5 transmembrane domain and the S6 transmembrane domain (with linker), and the corresponding chimeric channels of KCNQ5 contained S5 transmembrane domain or S6 transmembrane domain from KCNQ1.

KCNQ1 wild-type = KCNQ1 wild-type (Homo sapiens, UniProt P51787); details: FIG. 4A
Description: The steady state amplitudes of the currents evoked by a series of depolarized voltage pulses from −100 to 80 mV in 10 mV increment were normalized to the level evoked by the membrane potential of 80 mV in the control group. The holding potential was −100 mV.
Expression of KCNQ5 and KCNQ1 channels into Xenopus oocytes—Human KCNQ5 and KCNQ1 genes were cloned into a pKSM vector that has been engineered specifically for oocyte expression. The gene sequences were confirmed by DNA sequencing. […] The constructs were linearized by XbaI restriction enzyme (NEB, Beverly, Mass.). In vitro transcription was performed with an mMESSAGE mMACHINE® kit (Ambion, Austin, Tex.) and the cRNA was purified by phenol extraction. Xenopus oocytes were injected with 46 nl solution containing approximately 9.2 ng cRNA using a Drumond Nanojet oocyte injector (Drummond Scientific Co., Broomall, Pa.). Electrophysiological recording was performed 3-7 days after injection.
Electrophysiology—All experiments were performed at room temperature (22-23° C.) using conventional oocyte two-electrode voltage clamp recording (TEVC). […]
Data analysis—Current amplitude was measured online using HEKA Pulsefit 8.5 software. […] Data were expressed as mean±SE, and the paired student t test was performed. […]

Wild type KCNQ5 = Wild type KCNQ5 (Homo sapiens, UniProt Q9NR82); details: cited from earlier work
rat KCNQ5 polypeptide = rat KCNQ5 polypeptide (Rattus norvegicus, UniProt F1LY25); details: Jensen et al. 2005; cited from earlier work
mouse KCNQ5 polypeptide = mouse KCNQ5 polypeptide (Mus musculus, UniProt Q9JK45); details: Jensen et al. 2005; cited from earlier work
KCNQ1 = KCNQ1 (Homo sapiens, UniProt P51787); details: background statement; cited from earlier work
KCNQ1(L171W) = biological target: T3, KCNQ1(L171W) (Homo sapiens, UniProt P51787, L266W); assay: Two-electrode voltage clamp in Xenopus oocytes, KCNQ1(L171W)
T3 sequence (P51787 with tags, fused parts or gaps L266W): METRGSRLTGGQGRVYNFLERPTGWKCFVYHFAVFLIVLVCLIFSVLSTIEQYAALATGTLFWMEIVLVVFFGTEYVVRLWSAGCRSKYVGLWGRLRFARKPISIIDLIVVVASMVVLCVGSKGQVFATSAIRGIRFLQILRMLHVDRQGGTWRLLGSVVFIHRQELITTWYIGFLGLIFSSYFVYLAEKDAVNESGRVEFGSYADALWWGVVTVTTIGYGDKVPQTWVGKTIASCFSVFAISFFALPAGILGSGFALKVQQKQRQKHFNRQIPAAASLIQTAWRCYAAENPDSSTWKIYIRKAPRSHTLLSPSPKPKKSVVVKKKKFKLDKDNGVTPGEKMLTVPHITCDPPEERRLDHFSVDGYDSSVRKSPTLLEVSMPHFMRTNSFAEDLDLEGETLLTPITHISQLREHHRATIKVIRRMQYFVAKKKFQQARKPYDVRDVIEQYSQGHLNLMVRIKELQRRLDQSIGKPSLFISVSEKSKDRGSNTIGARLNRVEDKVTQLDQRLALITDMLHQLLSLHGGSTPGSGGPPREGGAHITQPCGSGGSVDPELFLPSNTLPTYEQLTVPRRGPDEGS

Chain of KCNQ5 containing an S5-S6 transmembrane domain from KCNQ1 (Q9NR82 other isoform, or with tags, fused parts or gaps with the stated changes): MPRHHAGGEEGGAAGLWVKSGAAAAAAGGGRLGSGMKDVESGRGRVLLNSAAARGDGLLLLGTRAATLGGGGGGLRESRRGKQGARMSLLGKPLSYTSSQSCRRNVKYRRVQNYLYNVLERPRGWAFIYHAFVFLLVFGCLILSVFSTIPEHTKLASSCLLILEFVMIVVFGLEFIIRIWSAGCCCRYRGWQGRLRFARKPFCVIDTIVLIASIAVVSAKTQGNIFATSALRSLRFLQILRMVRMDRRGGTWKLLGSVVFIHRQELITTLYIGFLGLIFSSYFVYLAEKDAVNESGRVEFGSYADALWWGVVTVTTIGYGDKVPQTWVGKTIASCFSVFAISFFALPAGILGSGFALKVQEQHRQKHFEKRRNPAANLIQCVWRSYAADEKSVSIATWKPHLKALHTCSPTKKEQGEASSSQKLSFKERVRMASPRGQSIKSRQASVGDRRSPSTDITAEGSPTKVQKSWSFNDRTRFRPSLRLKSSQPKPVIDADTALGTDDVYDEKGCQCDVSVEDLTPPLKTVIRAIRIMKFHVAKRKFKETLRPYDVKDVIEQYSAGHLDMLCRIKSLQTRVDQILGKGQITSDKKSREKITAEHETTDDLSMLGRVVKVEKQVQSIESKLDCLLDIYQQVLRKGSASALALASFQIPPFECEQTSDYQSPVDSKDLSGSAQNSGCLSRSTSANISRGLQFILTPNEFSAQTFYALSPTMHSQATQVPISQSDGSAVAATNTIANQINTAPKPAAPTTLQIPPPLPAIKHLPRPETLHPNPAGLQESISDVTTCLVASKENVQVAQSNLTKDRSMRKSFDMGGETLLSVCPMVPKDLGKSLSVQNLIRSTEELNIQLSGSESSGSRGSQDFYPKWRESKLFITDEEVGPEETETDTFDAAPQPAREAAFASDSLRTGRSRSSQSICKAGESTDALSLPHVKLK
Chain of KCNQ5 containing an S5 transmembrane domain from KCNQ1 (Q9NR82 whole entry Y260F/A261I/S263R/K264Q/A269T/W270L/V276G/F282Y/L283F/V287A, the tested form may be a part): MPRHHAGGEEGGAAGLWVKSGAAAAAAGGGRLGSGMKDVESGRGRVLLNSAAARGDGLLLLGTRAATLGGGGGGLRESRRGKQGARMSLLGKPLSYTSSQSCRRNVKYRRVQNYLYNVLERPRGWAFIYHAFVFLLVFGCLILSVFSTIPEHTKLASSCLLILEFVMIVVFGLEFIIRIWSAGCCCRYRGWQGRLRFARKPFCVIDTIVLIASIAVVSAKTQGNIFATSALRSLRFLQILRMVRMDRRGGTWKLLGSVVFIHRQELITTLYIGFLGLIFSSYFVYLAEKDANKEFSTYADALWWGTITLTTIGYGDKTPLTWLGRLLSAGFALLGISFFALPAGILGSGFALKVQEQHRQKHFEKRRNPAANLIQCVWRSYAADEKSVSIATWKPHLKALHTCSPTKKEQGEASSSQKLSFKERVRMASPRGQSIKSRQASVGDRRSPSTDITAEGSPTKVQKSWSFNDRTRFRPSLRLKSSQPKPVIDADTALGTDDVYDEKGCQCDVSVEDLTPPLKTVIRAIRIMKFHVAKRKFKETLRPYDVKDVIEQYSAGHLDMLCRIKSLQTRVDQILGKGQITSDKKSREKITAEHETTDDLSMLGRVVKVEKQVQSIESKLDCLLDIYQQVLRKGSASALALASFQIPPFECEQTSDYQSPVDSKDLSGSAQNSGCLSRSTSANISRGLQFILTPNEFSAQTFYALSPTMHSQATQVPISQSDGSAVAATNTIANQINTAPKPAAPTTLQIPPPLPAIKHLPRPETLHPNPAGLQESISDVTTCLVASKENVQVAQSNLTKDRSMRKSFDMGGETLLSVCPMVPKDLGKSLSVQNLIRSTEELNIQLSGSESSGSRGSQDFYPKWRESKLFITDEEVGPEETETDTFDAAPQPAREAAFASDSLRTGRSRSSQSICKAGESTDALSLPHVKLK
T1 sequence (Q9NR82 whole entry W270L): as the sequence (Q9NR82 whole entry Y260F/A261I/S263R/K264Q/A269T/W270L/V276G/F282Y/L283F/V287A, the tested form may be a part) above, with F260Y, I261A, R263S, Q264K, T269A, G276V, Y282F, F283L, A287V counted along it
Chain of Wild type KCNQ5 (Q9NR82 whole entry): as the sequence (Q9NR82 whole entry Y260F/A261I/S263R/K264Q/A269T/W270L/V276G/F282Y/L283F/V287A, the tested form may be a part) above, with F260Y, I261A, R263S, Q264K, T269A, L270W, G276V, Y282F, F283L, A287V counted along it
Chain of rat KCNQ5 polypeptide (F1LY25 1-951): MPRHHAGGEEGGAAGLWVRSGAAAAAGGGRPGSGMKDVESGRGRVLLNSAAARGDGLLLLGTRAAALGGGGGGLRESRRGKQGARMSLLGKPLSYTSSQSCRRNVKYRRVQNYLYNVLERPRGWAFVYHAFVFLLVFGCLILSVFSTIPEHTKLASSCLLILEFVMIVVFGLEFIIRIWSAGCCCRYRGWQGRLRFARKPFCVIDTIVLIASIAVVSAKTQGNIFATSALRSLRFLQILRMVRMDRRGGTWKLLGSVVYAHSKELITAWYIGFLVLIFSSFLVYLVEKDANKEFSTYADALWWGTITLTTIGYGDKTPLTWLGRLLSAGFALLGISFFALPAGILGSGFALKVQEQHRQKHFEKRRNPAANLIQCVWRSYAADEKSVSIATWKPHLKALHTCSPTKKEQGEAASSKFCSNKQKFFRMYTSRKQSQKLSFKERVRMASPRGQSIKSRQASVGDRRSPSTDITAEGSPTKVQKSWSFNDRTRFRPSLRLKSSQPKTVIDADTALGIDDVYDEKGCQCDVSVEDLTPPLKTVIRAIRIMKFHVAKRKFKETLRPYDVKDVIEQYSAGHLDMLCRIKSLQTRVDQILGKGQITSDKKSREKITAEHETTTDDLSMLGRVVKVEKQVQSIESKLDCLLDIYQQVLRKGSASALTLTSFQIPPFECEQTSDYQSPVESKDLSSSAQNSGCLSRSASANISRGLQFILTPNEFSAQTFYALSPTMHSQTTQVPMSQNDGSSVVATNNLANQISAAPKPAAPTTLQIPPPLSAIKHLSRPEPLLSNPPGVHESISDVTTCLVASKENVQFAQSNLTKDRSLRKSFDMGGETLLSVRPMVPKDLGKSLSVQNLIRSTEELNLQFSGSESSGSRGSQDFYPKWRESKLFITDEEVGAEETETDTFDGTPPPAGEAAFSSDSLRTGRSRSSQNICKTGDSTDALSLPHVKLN
Chain of mouse KCNQ5 polypeptide (Q9JK45 whole entry): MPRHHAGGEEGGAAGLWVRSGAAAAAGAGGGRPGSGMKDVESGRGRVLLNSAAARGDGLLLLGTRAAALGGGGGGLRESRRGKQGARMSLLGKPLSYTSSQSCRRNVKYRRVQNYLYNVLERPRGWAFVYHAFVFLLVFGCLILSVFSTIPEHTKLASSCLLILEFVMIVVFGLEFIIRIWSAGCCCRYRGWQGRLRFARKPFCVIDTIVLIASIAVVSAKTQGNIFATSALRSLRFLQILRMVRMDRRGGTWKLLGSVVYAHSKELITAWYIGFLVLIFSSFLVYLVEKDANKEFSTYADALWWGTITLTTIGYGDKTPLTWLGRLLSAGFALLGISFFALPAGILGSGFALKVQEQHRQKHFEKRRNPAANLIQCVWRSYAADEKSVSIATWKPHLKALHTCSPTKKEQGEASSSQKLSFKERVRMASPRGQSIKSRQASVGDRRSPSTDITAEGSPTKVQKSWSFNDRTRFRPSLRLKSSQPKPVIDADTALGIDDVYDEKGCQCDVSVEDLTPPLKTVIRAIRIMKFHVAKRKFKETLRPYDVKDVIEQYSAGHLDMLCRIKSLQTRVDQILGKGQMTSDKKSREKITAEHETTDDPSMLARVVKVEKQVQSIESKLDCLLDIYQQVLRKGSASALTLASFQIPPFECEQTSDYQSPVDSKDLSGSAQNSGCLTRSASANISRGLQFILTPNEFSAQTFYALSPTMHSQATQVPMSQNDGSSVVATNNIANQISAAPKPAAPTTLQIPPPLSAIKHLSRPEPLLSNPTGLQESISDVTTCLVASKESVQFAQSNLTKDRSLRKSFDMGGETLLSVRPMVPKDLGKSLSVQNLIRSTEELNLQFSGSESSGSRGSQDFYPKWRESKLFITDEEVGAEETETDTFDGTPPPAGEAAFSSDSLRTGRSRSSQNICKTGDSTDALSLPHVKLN
T2 sequence (Q9NR82 whole entry A269T): as the sequence (Q9NR82 whole entry Y260F/A261I/S263R/K264Q/A269T/W270L/V276G/F282Y/L283F/V287A, the tested form may be a part) above, with F260Y, I261A, R263S, Q264K, L270W, G276V, Y282F, F283L, A287V counted along it

CCOC(=O)Nc1ccc(NCc2ccc(F)cc2)cc1N [retigabine, N-(2-amino-4-(4-fluorobenzylamino)-phenyl)carbamic acid ethyl ester]
current (I)-voltage relationship in the absence vs presence of retigabine ([1]; 5 min after the application, p>0.05): No significant difference
change of current amplitude and voltage dependent activation ([1]; 5 min application period, FIG. 1C): neither current amplitude nor voltage dependent activation changed significantly
effect on channel activities ([1]; oocytes, FIGS. 1A and 1B): no longer augmented the channel activities
response to retigabine (fold increase IΔ/I0 in current amplitude) (KCNQ5(W270L)): significantly less response; also recorded: completely lost the response
response to retigabine (fold increase IΔ/I0 in current amplitude) (KCNQ5(A269T)): significantly less response
channel current induced by depolarization to 40 mV ([2]; 5 min of bath application): remained unchanged
current amplitude and voltage dependence of the currents (I-V curves before and after treatment) ([2]; FIG. 2A right panel, FIG. 2C): Neither current amplitude nor voltage dependence of the currents was modified
effect on the mutant channel ([2]; FIG. 2B): no longer had effect
current (I)-voltage relationship in the absence vs presence of retigabine ([2]; p>0.05): No significant difference
response of channel current (KCNQ1 wild-type; 50 μM retigabine): no significant response
response of channel current (KCNQ1 wild-type; 200 μM retigabine): slightly inhibitory response
responsiveness of the channel to retigabine (Wild type KCNQ5; Wickendon et al. 2001): responsive
opening of KCNQ channels (Wild type KCNQ5; background statement): open
sensitivity of the channel to retigabine (rat KCNQ5 polypeptide): sensitive
sensitivity of the channel to retigabine (mouse KCNQ5 polypeptide): sensitive
enhancing effect on the channel (KCNQ1): no enhancing effect
steady state current amplitude (KCNQ1(L171W); 50 μM retigabine, FIG. 4B): clearly reduced
voltage dependence of channel activation (KCNQ1(L171W); FIG. 4D and inset (200 μM)): modified the voltage dependence of channel activation
activation kinetics of the current (KCNQ1(L171W); current evoked at 80 mV, FIG. 4C): from a single to a double exponential activation time course
kind of effect on the channel (activated or blocked) (KCNQ1(L171W); oocytes, TEVC): blocked
inhibition at 200 µM (KCNQ1(L171W); read-out: inhibition of the steady-state current): 62.5%
